Experiment [1] deals with MLE12 lung epithelial cells. Nature of the experiment: MLE12 lung epithelial cell line Western blot after rHSP70 ± TLR4 inhibitor or recombinant Wnt5a. It counts as cell-based, murine. The settings on record: for G-CSF expression: in vitro lung epithelial cells.
The test system of another experiment is non-tumor-bearing mice. The experiment can be described thus: Recombinant HSP70 i.p. delivery into non-tumor-bearing mice (lung Western blot, flow cytometry). It is filed as in vivo, mouse. The settings on record: rHSP70 i.p. vs normal saline. The source says: (§1) Indeed, while we were able to detect soluble HSP70 as a secretion product of human melanoma cell lines, we were not able to detect the production of active IL-1β (FIGS. 12B and C). […] We have previously shown that the tumor-intrinsic NLRP3 inflammasome drives PMN-MDSC recruitment via an autocrine signaling pathway dependent on soluble HSP70 (19). […] To determine whether HSP70 could play the role of a soluble mediator in the induction of CXCR2-dependent chemokines in the distant lung, we delivered recombinant HSP70 (rHSP70) into non-tumor-bearing mice by intra-peritoneal (i.p.) injection and measured CXCL5 expression by whole lung tissue Western blot analysis as well as PMN-MDSC accumulation in the lung by flow cytometry. […] Based on these cumulative findings, we hypothesized that tumor-derived HSP70 signals through TLR4 to promote PMN-MDSC trafficking to these distant tissues. […]
Cells (1-2×10^6) were diluted in 150 μl flow buffer per well of V bottom culture plates, incubated with Live/Dead Stain (Sigma) on ice for 20 mins, washed twice, and incubated with Fc Block (anti-CD16/CD32, 2 ug/mL) before staining with appropriate conjugated antibodies. Cells were washed, resuspended in 2% paraformaldehyde for 15 mins at 4° C., and analyzed using a BD FACSCanto flow cytometry system. […]

Experiment [2] relates to CD45^−EpCAM^+ lung epithelial cells of TLR4^f/f and SPC-TLR4^−/− mice. The experiment can be described thus: rHSP70 i.p. in TLR4f/f and SPC-TLR4−/− transgenic mice, qrt-PCR of sorted lung epithelial cells. It is filed as in vivo, mouse. The settings on record: rHSP70 i.p. vs saline.
Source text: as §1
Small representative tissue specimens were harvested from tumors and lungs and stored in RNAlater at −80° C. […] Total RNA was isolated by RNeasy Plus Mini Kit (Qiagen, 74134) and RNA was quantified by NanoDrop. […]

Experiment [3] concerns BRAF^V600EPTEN^−/− melanoma-bearing NLRP3^−/− mice. Nature of the experiment: Anti-PD-1 alone or with MCC950 in BRAFV600EPTEN−/− melanoma-bearing NLRP3−/− mice. It is filed as in vivo, mouse.
Experiment [4] concerns autochthonous BRAF^V600EPTEN^−/− melanoma model. Nature of the experiment: Autochthonous (transgenic) BRAFV600EPTEN−/− melanoma model treated with anti-PD-1 ± MCC950 or anti-HSP70 antibody. It is filed as in vivo, mouse. An excerpt:
Prior studies have described disease hyper-progression (HPD) occurring in response to anti-PD-1 immunotherapy, a phenomenon estimated by some authors to develop in ˜10% of all solid tumors (5). In HPD, tumor burden can dramatically increase in response to exposure to anti-PD-1 immunotherapy. Given our prior data describing a role for the tumor-intrinsic NLRP3-HSP70 signaling axis as an important driver of PMN-MDSC accumulation in distant lung tissues in response to anti-PD-1 immunotherapy, we hypothesized that this same tumor-intrinsic signaling pathway can establish an immunologic environment capable of facilitating HPD. […]
B6.Cg-Braf^tm1Mmcm Pten^tm1Hwu Tg(Tyr-cre/ERT2 H-2^b)13Bos/BosJ transgenic mice were subdermally injected with 4-Hydroxytamoxifen (4-HT) (Sigma, H6278-50MG CCF, 38.75 μg/mouse) to induce primary melanoma development at the base of the tail. […] Primary tumor volumes were monitored by orthogonal caliper measurements every 3 days. Tumor volume was calculated according to the formula: cm^3=[(length, cm)×(width, cm)^2]/2.
Small representative tissue specimens were harvested from tumors and lungs and stored in RNAlater at −80° C. […] Total RNA was isolated by RNeasy Plus Mini Kit (Qiagen, 74134) and RNA was quantified by NanoDrop. […] All data were normalized to Actb expression and relative gene expression was quantitated based on the 2ΔΔCt method. […]

“rHSP70: recombinant HSP70 delivered by intra-peritoneal injection or added to cells”: the Wnt5a expression result in experiment [1] (MLE12 cells, rHSP70 ± TLR4 inhibitor) was “induce Wnt5a expression in a TLR4-dependent manner”. Moreover, the G-CSF expression entry in experiment [1] is “induce modest G-CSF upregulation”. Further, in the experiment with non-tumor-bearing mice (Western blot), the “CXCL5 expression in whole lung tissue” value was “induce CXCL5 expression”. Also, the “PMN-MDSC accumulation in the lung” value in the experiment on non-tumor-bearing mice (flow cytometry) was “promote the accumulation of PMN-MDSCs in lung tissues”. The “Wnt5a and Cxcl5 expression in lung epithelial cells” value in experiment [2] is “upregulated only in lung epithelial cells expressing TLR4”.

With `CC(C)(O)c1coc(S(=O)(=O)NC(=O)Nc2c3c(cc4c2CCC4)CCC3)c1` [MCC950], the “anti-PD-1-induced accumulation of PMN-MDSCs into lung tissues” value in experiment [3] (MCC950 in combination with anti-PD-1, lung tissue and BALF) is “largely eliminated”. Also, the “upregulation of Wnt5a expression in lung tissues” value in experiment [3] (MCC950 with anti-PD-1, Western blot) was “suppress the upregulation of Wnt5a expression in lung tissues”. Moreover, the “metastatic progression to the lung” value in experiment [4] (MCC950 with anti-PD-1, S100β IHC and TRP2 qrt-PCR) was “inhibiting metastatic progression”. In addition, the “PMN-MDSC populations in the lung” value in experiment [4] (MCC950 with anti-PD-1 vs anti-PD-1) is given as “suppress PMN-MDSC populations in the lung”.

B1: Wnt5a: recombinant Wnt5a (R&D Systems/Bio-techne, 645-WN-010) used to treat cell lines (protein, UniProt P22725 62-380, looked up)
Protein Wnt-5a: IIGAQPLCSQLAGLSQGQKKLCHLYQDHMQYIGEGAKTGIKECQYQFRHRRWNCSTVDNTSVFGRVMQIGSRETAFTYAVSAAGVVNAMSRACREGELSTCGCSRAARPKDLPRDWLWGGCGDNIDYGYRFAKEFVDARERERIHAKGSYESARILMNLHNNEAGRRTVYNLADVACKCHGVSGSCSLKTCWLQLADFRKVGDALKEKYDSAAAMRLNSRGKLVQVNSRFNSPTTQDLVYIDPSPDYCVRNESTGSLGTQGRLCNKTSEGMDGCELMCCGRGYDQFKTVQTERCHCKFHWCCYVKCKKCTEIVDQFVCK
Turning to B1, in experiment [1], the G-CSF expression result was “more immediate driver of G-CSF”.
